In patent publication US10383835B2, “Treatment of inflammatory disorders in non-human mammals” (The Regents of the University of California, priority 2012, dated 2019):

Columns and labels:
Canine sEH = Canine sEH (Canis lupus familiaris, UniProt A0A8I3NJL8); experiment: sEH Inhibitor Screen of Canine sEH; type: biochemical; settings: [I] = 100 nM
sEH = sEH (Homo sapiens (Human), UniProt P34913); experiment: Activity as inhibitor of sEH (standard assays); type: biochemical
Description: Derivatives of urea are transition state mimetics that form a preferred group of sEH inhibitors. […] Any particular urea derivative or other compound can be easily tested for its ability to inhibit sEH by standard assays, such as those discussed herein. The production and testing of urea and carbamate derivatives as sEH inhibitors is set forth in detail in, for example, Morisseau et al., Proc Natl Acad Sci (USA) 96:8849-8854 (1999).
One category of these inhibitors comprises inhibitors that mimic the substrate for the enzyme. The lipid alkoxides (e.g., the 9-methoxide of stearic acid) are an exemplar of this group of inhibitors.

COX-2 / COX-1 = settings: cited from earlier work
in vivo = settings: Thoroughbred, horse, iv, 0.1 mg/kg
[1] = design: species or system horse; settings: in vivo
COX-2 = COX-2 (Equus caballus (Horse), UniProt O19183); settings: read-out: 80% maximal inhibitory concentration (IC80) against COX-2; cited from earlier work
[2] = test system: horse with pain due to laminitis; experiment: Pain (VAS) and blood pressure in one horse with naturally occurring laminitis, multimodal analgesic therapy; type: in vivo; settings: before t-TUCB; phenylbutazone 4 mg/kg twice daily PO, gabapentin 20 mg/kg twice daily PO
[3] = human volunteers; cited from earlier work
[4] = Plasma concentrations and pharmacokinetics in the laminitic horse; settings: gabapentin 20 mg/kg BID PO

Chain of Canine sEH (A0A8I3NJL8 1-556): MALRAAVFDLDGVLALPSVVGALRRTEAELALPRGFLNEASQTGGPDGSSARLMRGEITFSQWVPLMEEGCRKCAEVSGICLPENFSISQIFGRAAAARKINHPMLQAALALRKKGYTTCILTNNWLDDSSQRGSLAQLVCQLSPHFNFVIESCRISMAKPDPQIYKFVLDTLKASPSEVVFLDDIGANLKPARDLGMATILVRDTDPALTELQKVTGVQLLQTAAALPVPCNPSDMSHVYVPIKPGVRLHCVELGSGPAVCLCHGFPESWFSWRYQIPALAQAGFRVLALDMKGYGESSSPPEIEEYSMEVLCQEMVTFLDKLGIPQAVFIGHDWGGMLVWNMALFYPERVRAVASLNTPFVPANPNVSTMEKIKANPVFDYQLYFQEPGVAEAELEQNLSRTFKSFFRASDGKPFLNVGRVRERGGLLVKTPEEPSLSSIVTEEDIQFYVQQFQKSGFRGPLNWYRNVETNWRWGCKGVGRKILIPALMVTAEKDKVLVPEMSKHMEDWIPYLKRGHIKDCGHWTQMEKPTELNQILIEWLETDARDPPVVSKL
Chain of COX-2 (O19183 18-604): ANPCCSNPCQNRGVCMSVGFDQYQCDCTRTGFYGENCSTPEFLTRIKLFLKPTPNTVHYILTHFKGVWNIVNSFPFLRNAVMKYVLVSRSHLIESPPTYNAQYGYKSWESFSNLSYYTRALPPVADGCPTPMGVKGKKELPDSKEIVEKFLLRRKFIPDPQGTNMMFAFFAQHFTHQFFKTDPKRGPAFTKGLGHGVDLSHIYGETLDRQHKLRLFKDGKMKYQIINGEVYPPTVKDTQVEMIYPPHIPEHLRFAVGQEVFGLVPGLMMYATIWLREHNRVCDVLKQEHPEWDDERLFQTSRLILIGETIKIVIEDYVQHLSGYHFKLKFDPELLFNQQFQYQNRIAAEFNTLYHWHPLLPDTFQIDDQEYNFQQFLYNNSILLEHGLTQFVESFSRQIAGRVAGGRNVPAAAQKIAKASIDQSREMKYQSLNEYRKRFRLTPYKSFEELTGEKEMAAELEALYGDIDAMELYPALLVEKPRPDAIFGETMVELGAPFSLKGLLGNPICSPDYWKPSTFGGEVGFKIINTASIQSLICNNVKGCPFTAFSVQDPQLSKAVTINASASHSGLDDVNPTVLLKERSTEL
Chain of sEH (P34913 whole entry): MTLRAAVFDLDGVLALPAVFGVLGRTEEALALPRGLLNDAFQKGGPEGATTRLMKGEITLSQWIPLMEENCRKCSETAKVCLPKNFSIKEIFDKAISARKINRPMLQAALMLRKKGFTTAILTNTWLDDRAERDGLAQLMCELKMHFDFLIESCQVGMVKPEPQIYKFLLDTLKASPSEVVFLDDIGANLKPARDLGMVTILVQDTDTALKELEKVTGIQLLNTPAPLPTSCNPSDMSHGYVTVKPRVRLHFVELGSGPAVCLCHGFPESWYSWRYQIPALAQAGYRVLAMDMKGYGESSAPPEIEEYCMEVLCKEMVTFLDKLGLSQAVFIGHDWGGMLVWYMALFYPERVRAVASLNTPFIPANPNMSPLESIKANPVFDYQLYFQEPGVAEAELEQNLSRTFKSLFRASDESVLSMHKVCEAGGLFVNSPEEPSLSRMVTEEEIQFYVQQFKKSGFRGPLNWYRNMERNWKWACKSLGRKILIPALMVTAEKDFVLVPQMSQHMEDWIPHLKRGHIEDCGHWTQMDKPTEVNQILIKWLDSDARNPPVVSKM

Question: With `O=C(Nc1ccc(OC(F)(F)F)cc1)N[C@H]1CC[C@H](Oc2ccc(-c3nnn[nH]3)cc2)CC1` [compound 2806, 1-(trans-4-(4-(1H-tetrazol-5-yl)-phenoxy)-cyclohexyl)-3-(4-(trifluoromethoxy)-phenyl)-urea] as the compound, how does the inhibition at 0.1 µM (Canine sEH) read?
Answer: 99%

Question: For `CCCCCCCCCCCCNC(=O)NC12CC3CC(CC(C3)C1)C2` [ADU, N-Adamantyl-N′-dodecyl urea], which “activity as an inhibitor of sEH” value (sEH) is on record?
Answer: particularly high activity on sEH

Question: For `Cc1oc(=O)oc1COC(=O)c1ccc(O[C@H]2CC[C@H](NC(=O)Nc3ccc(OC(F)(F)F)cc3)CC2)cc1` [compound 2796, (5-methyl-2-oxo-1,3-dioxol-4-yl)methyl 4-((1r,4r)-4-(3-(4-(trifluoromethoxy)-phenyl)-ureido)-cyclohexyloxy)-benzoate], which inhibition at 0.1 µM (Canine sEH) is on record?
Answer: 84%

Question: For `CC(=O)Oc1ccccc1C(=O)O` [Aspirin], which “COX-2 (IC50)/COX-1 (IC50) ratio” value (COX-2 / COX-1) is on record?
Answer: 0.32

Question: Which inhibition at 0.1 µM (Canine sEH) does the source give for `O=C(Nc1ccc(OC(F)F)cc1)N[C@H]1CC[C@H](Oc2ccc(C(=O)O)cc2)CC1` [compound 2805, 4-(trans-4-(3-(4-(difluoromethoxy)-phenyl)-ureido)-cyclohexyloxy)-benzoic acid] here?
Answer: 95%

Question: For `O=C(Nc1ccccc1F)N[C@H]1CC[C@H](Oc2ccc(C(=O)O)cc2)CC1` [compound 2736, 4-(trans-4-(3-(2-fluorophenyl)-ureido)-cyclohexyloxy)-benzoic acid], which inhibition at 0.1 µM (Canine sEH) is on record?
Answer: 80%

Question: For `O=C(O)CNC(=O)c1ccc(O[C@H]2CC[C@H](NC(=O)Nc3ccc(OC(F)(F)F)cc3)CC2)cc1` [compound 2283, trans-2-(4-(4-(3-(4-trifluoromethoxy-phenyl)-ureido)-cyclohexyloxy)-benzamido)-acetic acid], which inhibition at 0.1 µM (Canine sEH) is on record?
Answer: 64%

Question: For `O=C(Nc1ccc(OC(F)(F)F)cc1)N[C@H]1CC[C@H](Oc2ccc(C(=O)NO)cc2)CC1` [compound 2761, N-hydroxy-4-(trans-4-(3-(4-(trifluoromethoxy)-phenyl)-ureido)-cyclohexyloxy)-benzamide], which inhibition at 0.1 µM (Canine sEH) is on record?
Answer: 72%

Question: Which inhibition at 0.1 µM (Canine sEH) does the source give for `CS(=O)(=O)NC(=O)c1ccc(O[C@H]2CC[C@H](NC(=O)Nc3ccc(OC(F)(F)F)cc3)CC2)cc1` [compound 2728, N-(methylsulfonyl)-4-(trans-4-(3-(4-trifluoromethoxy-phenyl)-ureido)-cyclohexyloxy)-benzamide] here?
Answer: 84%

Question: Which half-life (in vivo) does the source give for `O=C(Nc1ccc(OC(F)(F)F)cc1)N[C@H]1CC[C@H](Oc2ccc(C(=O)O)cc2)CC1` [compound 1728, trans-4-{4-[3-(4-Trifluoromethoxy-phenyl)-ureido]-cyclohexyloxy}-benzoic acid] here?
Answer: 29.8 h

Question: And the Anisocytosis [1]?
Answer: Slight

Question: And the “Bilirubin Direct” value [1]?
Answer: 0.1 mg/dL

Question: What about the Creatinine [1] of the same compound?
Answer: 1.1 mg/dL

Question: What about the Echinocytes [1] of the same compound?
Answer: Few

Question: What about the GGT [1] of the same compound?
Answer: 11 IU L^−1

Question: What about the SDH-37 [1] of the same compound?
Answer: 0 IU L^−1

Question: Which IC80 (COX-2) does the source give for `CCCCC1C(=O)N(c2ccccc2)N(c2ccccc2)C1=O` [phenylbutazone] here?
Answer: ~23 µM

Question: And the “response of laminitis pain to therapy” value [2]?
Answer: refractory

Question: What does the source list for `NCC1(CC(=O)O)CCCCC1` [gabapentin]?
Answer: plasma concentration associated with analgesia [3]: ~18 µM; lowest measured plasma concentration [4]: 1 µM; highest measured plasma concentration ([4]; first sampling five hours after dosing): 18 µM; response of laminitis pain to therapy [2]: refractory

Question: Which “COX-2 (IC50)/COX-1 (IC50) ratio” value (COX-2 / COX-1) does the source give for `COc1ccc2c(c1)c(CC(=O)O)c(C)n2C(=O)c1ccc(Cl)cc1` [indomethacin] here?
Answer: 33

Question: Which inhibition at 0.1 µM (Canine sEH) does the source give for `O=C(Nc1ccc(OC(F)(F)F)cc1)Nc1ccc(Oc2ccc(C(=O)O)cc2)cc1F` [compound 2807, 4-(3-fluoro-4-(3-(4-(trifluoromethoxy)-phenyl)-ureido)-phenoxy)-benzoic acid] here?
Answer: 95%

Question: With `O=C(Nc1ccc(OC(F)(F)F)cc1)NC1CCC(Oc2ncccn2)CC1` (stereo not shown) [compound 2810, 1-(4-(pyrimidin-2-yloxy)-cyclohexyl)-3-(4-(trifluoromethoxy)-phenyl)-urea] as the compound, how does the inhibition at 0.1 µM (Canine sEH) read?
Answer: 52%

Question: Which inhibition at 0.1 µM (Canine sEH) does the source give for `O=C(Nc1ccc(Oc2ccc(C(=O)O)cc2)cc1)Nc1ccc(OC(F)(F)F)cc1` [compound 2803, 4-(4-(3-(4-(trifluoromethoxy)-phenyl)-ureido)-phenoxy)-benzoic acid] here?
Answer: 82%

Question: For `COC(=O)c1ccc(NC2CCC(NC(=O)Nc3ccc(OC(F)(F)F)cc3)CC2)cc1` (stereo not shown) [compound 2804, methyl 4-(4-(3-(4-(trifluoromethoxy)-phenyl)-ureido)-cyclohexylamino)-benzoate], which inhibition at 0.1 µM (Canine sEH) is on record?
Answer: 49%

Question: For `O=C1CCC(NC(=O)Nc2ccc(OC(F)(F)F)cc2)CC1` [compound 2809, 1-(4-oxocyclohexyl)-3-(4-(trifluoromethoxy)-phenyl)-urea], which inhibition at 0.1 µM (Canine sEH) is on record?
Answer: 51%
